Reference: patent US7968551B2, “Chromenoneindoles” (Merck Patent GmbH, priority 2003, dated 2011)
Each block holds one compound with its values, some of them ahead of it.

Key:
[1] = Absolute bioavailability from AUC after po and iv administration; assay type: in vivo; conditions: rat; Wistar rats, male; iv 0.2 mg/kg, po 0.5 mg/kg; plasma by LC/MS/MS
Protocol: The bioavailability was determined by a standard method described in many textbooks of pharmacokinetics with the aid of the AUC (area under the concentration/time curves) measured after po and iv administration. For the determination of the absolute bioavailability, the plasma concentration curve of the said substances was determined after intravenous (iv) and oral (po) administration to Wistar rats (male; N=3 animals/administration). The following experiment design was selected: • Administration method: iv and po • Dose: iv−0.2 mg/kg; po−0.5 mg/kg • Time of blood sampling for the determination of the plasma concentrations: • iv: 0.1, 0.5, 1, 2, 4, 6 and 24 h • po: 0.25, 0.5, 1, 2, 4, 6 and 24 h
The plasma concentrations were determined with the aid of LC/MS/MS.
The plasma concentrations were used to calculate the AUC (area under the concentration/time curve) in accordance with the so-called trapezium formula.
The bioavailability is obtained from the AUC in accordance with the following formula: Bioavailability [%]=100×(AUC po)/AUC iv)[…]

cortical serotonin level = experiment: Microdialysis: effect on the cortical serotonin level in vivo; conditions: rats
Excerpt: In order to determine the effect of the substances on the cortical serotonin level in rats in vivo, a microdialysis probe with a semipermeable membrane was implanted into the brain tissue and perfused with a solution matched to the composition of cerebrospinal fluid (see in this respect, for example, Di Chiara, Trends Pharmacol. Sci. 11, 117-121, 1990). The molecules of the extracellular space, such as, for example, also of the neurotransmitter serotonin, diffuse via this membrane into the interior of the probe in accordance with their concentration gradient. From there, they are transported with the perfusion stream to a collecting vessel. The serotonin concentration in the dialysate obtained in this way is subsequently determined by means of high-sensitivity analytical methods. The fractions obtained at regular intervals (of, for example, 15-20 minutes) thus reflect the concentration changes of the transmitter in question in the brain tissue over a period of several hours. The concentration of the serotonin in the dialysate is firstly measured without any influence. The substance to be tested is then applied, and the serotonin concentrations before and after administration of the substances are compared.

- bioavailability [1]: 10%
SMILES: N#Cc1ccc2[nH]cc(CCCCN3CCN(c4ccc5oc(=O)ccc5c4)CC3)c2c1 [EMD 135894, 3-(4-(4-(2-oxo-2H-1-benzopyran-6-yl)-1-piperazinyl)butyl)indole-5-carbonitrile, reference compound]

- bioavailability [1]: ~20%
SMILES: CCOC(=O)Nc1cc2cc(N3CCN(CCCCc4c[nH]c5ccc(C#N)cc45)CC3)ccc2oc1=O [EMD 480247, Ethyl(6-{4-[4-(5-cyano-1H-indol-3-yl)butyl]piperazin-1-yl}-2-oxo-2H-chromen-3-yl)carbamate]
- serotonin level in the brain (5-HT concentration in the dialysate), FIG. 3 (cortical serotonin level; 0.3 or 1.0 mg/kg i.p. compared with vilazodone 1 mg/kg): clearly superior action to vilazodone

SMILES: N#Cc1ccc2[nH]cc(CCCCN3CCN(c4ccc5oc(C(N)=O)cc5c4)CC3)c2c1 [EMD 68843, 5-{4-[4-(5-cyano-3-inolyl)butyl]-1-piperanzinyl}benzofuran-2-carboxamide, reference compound]
- serotonin level in the brain (5-HT concentration in the dialysate), FIG. 1 (cortical serotonin level; 1 mg/kg i.p.): comparable increase in the concentration of serotonin in the brain to EMD 135894

SMILES: N#Cc1ccc2[nH]cc(CCCCN3CCN(c4ccc5oc(=O)c(N)cc5c4)CC3)c2c1 [EMD 480246, 3-{4-[4-(3-Amino-2-oxo-2H-chromen-6-yl)piperazin-1-yl]butyl}-1H-indole-5-carbonitrile]
- serotonin level in the brain (5-HT concentration in the dialysate), FIG. 2 (cortical serotonin level; 0.3 mg/kg i.p.): even higher serotonin level than EMD 391987
